# Experimental data taken from patent publication US11220503B2, “Phthalazine derivatives, preparation method, pharmaceutical composition and usage thereof” (Shanghai SIMR Biotech Co., Ltd., priority 2015, dated 2022).
# How the values were obtained:
# α5β3γ2 receptor = biological target: T1, α5β3γ2 receptor (Homo sapiens, UniProt P18507+P31644); test: Supplementary data for cell level screening: new electrophysiology method (I. Lecker et al); format: cell-based; conditions: for Inverse agonism efficacy(%): new method, CsCl intracellular solution, GABA 0.1˜0.3 CM, other procedures as previous method; for inverse agonism efficacy of the compound/α5IA inverse agonism efficacy: ratio to the α5IA reference run above in the table (r4 or r29)
# T1 construct: expressed in transfected cells; host or cells: HEK-293 (stably transfected)
# [1] = Compound tissue distribution (brain/plasma); format: in vivo; conditions: brain and plasma, po; rat, 10 mg/kg p.o. in 50% PEG400, one hour; read-out: Brain/Plasma ratio
# Description: The distribution ratio of blood brain tissue was calculated by comparing the concentration of compound in rat plasma and brain tissue. The experimental animals were divided into two groups, the plasma group and the brain group, each with three. To measure brain to plasma ratio, rats were administed compounds in 50% PEG400 p.o. at a dose of 10 mg compound to be tested/kg. One hour later, plasma and brain samples were taken. Concentrations of compounds in brain and plasma were detected using LC-MS/MS-AJ (Triple Quad 5500) assay and analyzed using Phoenix WinNonlin.
# We also measured the brain to plasma ratio of compound #24. The experimental animals were divided into two groups, the plasma group and the brain group, each with three. To measure the brain to plasma ratio, Rats were administered compounds (1 mg/kg in 5% DMSO+70% PEG400+25% H2O p.o.). One hour later, plasma and brain samples were taken. Concentrations of compounds in brain and plasma were detected using a LC-MS/MS-AJ (Triple Quad 5500) assay and analyzed using Phoenix WinNonlin.
# T1 sequence (P31644 32-462): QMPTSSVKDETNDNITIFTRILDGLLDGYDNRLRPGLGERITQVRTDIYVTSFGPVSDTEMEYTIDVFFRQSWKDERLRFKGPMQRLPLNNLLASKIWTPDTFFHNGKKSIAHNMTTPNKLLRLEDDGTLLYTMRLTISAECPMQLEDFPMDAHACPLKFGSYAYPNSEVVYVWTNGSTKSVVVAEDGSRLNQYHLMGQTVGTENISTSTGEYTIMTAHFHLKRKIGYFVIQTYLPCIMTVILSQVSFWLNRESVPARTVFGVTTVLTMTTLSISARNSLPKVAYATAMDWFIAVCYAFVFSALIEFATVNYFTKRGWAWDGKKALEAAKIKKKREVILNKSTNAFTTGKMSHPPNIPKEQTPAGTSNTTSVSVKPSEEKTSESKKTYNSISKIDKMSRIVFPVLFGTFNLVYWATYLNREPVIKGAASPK
# T1 sequence (P28472 26-473 isoform P28472-2 partner limits assumed): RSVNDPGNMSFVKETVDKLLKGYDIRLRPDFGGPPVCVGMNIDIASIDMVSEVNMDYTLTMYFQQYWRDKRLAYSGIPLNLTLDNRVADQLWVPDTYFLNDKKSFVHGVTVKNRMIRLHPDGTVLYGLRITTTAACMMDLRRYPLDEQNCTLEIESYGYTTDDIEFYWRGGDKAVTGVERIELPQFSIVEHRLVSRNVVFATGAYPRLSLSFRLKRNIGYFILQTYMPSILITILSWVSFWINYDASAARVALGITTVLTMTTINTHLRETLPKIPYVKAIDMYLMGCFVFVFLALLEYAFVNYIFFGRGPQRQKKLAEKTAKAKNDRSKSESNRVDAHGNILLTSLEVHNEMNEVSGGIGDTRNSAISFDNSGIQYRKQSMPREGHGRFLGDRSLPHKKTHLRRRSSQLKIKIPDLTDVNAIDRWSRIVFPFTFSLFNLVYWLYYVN
# T1 sequence (P18507 40-475): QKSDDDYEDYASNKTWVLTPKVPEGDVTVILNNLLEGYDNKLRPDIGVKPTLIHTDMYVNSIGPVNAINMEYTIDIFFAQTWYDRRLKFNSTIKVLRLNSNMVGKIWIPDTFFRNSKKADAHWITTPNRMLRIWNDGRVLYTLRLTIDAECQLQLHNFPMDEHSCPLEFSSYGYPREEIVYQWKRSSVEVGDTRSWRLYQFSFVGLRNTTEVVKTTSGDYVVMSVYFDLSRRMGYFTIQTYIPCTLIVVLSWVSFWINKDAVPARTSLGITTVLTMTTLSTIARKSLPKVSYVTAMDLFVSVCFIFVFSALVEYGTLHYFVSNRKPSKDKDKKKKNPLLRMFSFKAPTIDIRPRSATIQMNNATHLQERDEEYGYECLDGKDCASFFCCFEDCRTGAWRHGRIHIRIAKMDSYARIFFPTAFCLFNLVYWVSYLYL
compound,measurement,setting,value
"CCNC(=O)c1ccc(COc2nn3c(-c4cc(C)on4)nnc3c3ccccc23)nc1 [Compound 07, N-ethyl-6-(((3-(5-methylisoxazol-3-yl)-[1,2,4]triazolo[3,4-a]phthalazin-6-yl)oxy)methyl)nicotinamide]",Inverse agonism efficacy(%),α5β3γ2 receptor,−21.1667%
same,inverse agonism efficacy of the compound/α5IA inverse agonism efficacy,α5β3γ2 receptor,1.219
same,Kp at 1 h,[1],< 0.01
"COCCNC(=O)c1ccc(COc2nn3c(-c4cc(C)on4)nnc3c3ccccc23)nc1 [Compound 08, N-(2-methoxyethyl)-6-(((3-(5-methylisoxazol-3-yl)-[1,2,4]triazolo[3,4-a]phthalazin-6-yl)oxy)methyl)nicotinamide]",Inverse agonism efficacy(%),α5β3γ2 receptor,−35.375%
same,inverse agonism efficacy of the compound/α5IA inverse agonism efficacy,α5β3γ2 receptor,1.902
same,Kp at 1 h,[1],< 0.01
